Several values for one entry are separate records, joined by “and”; a condition that tells them apart may be missing. Equal entries are not always repeated.
What was measured:
dNCS-1 = molecular target: T1, dNCS-1 (Drosophila melanogaster, UniProt Q9VWX8); assay: Protein-directed DCL, HPLC-MS relative peak area with and without dNCS-1
T1 construct: made in house; host or cells: E. coli
T1 sequence (Q9VWX8 1-187): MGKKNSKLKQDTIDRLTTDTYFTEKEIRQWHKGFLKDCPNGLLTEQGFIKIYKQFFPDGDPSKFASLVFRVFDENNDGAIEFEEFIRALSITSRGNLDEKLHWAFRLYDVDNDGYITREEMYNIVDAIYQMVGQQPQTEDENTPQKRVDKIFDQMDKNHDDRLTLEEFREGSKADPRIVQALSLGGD
Method: The reversibility of the DCL was evident, since an identical equilibrium distribution to that shown in Fig. 4a was obtained when two different starting points were employed. The observed degree of amplification was 3b > 3e ≥ 3d > 3a. The precise composition of the DCL (with and without dNCS-1), was assessed by measuring the relative peak area (RPA). Indeed, the normalized change of RPA was used to quantify the protein influence in the final outcome (Supplementary Figs. 9, 10 and Supplementary Tables 1, 2 and 3)[28]. […] Note that compounds 3a–3e can exist as E/Z isomers of the C = N bond. […].
Aldehyde 1 (1.2 μL, 50 mM, DMSO), the five acylhydrazides 2a–2e (5 × 3.6 μL, 50 mM, DMSO), p-anisidine (1 μL, 12 M, DMSO) and buffer 20 mM Tris, 0.5 M NaCl and 1 mM CaCl2, 1 mM DTT at pH 7.4 (750 μL) in 3.3 % DMSO. The mixture was stabilized in 5 h at 4 °C. HPLC analysis was performed.
Aldehyde 1 (1.2 μL, 50 mM, DMSO), the five acylhydrazides 2a–2e (5 × 3.6 μL, 50 mM, DMSO), p-anisidine (1 μL, 12 mM, DMSO) and dNCS-1 in buffer 20 mM Tris, 0.5 M NaCl and 1 mM CaCl2, 1 mM DTT at pH 7.4 (66.7 μM, 750 μL, 1 eq.). The experiment is in 3.3% DMSO. The mixture was stabilized for 5 h at 4 °C. Then, dNCS-1 was removed by ultrafiltration using an Amicon Ultra filter (0.5–10 KDa). HPLC analysis was performed and the traces were compared with the blank composition.
Supplementary Figure 9. Relative Peak Area of the DCL with and without dNCS1. Aldehyde
1 (1.2 µL, 50 mM), 2a-e (3.6 µL, 50 mM), catalyst (1 µL, 12 M), dNCS-1:1 [1:1], tris buffer (20
mM, pH 7.4), 1 mM CaCl2, 0.5 M NaCl, 1 mM DTT, T = 4 °C, 2% DM SO. Mean relative peak
area (RPA) of each acylhydrazone of the library in the absence (blank) and presence of dNCS-1.
Error bars indicate standard deviation (SD) over three experiments. The calculation is set by the
sum of all peak areas to 100% and assigning each peak its percentage. Source data are provided
R P A N o rm aliz ed V a riation
Supplementary Figure 10. RPA normalized of variation of DCL with and without dNCS1.
Aldehyde 1 (1.2 µL, 50 mM), 2a-e (3.6 µL, 50 mM), catalyst (1 µL, 12 M), dNCS-1:1 [1:1], tris
buffer (20 mM, pH 7.4), 1 mM CaCl2, 0.5 M NaCl, 1 mM DTT, T = 4 °C, 2% DM SO. Error
bars indicate SD over three experiments. Source data are provided as a Source Data file.

[1] = commercial drugs; ref 5 (Hou et al., 2004); cited from earlier work
[2] = Parallel artificial membrane permeability assay (PAMPA-BBB); format: in vitro ADME; conditions: for Pe (10-6 cm s-1) Experimental 1 / Pe (10-6 cm s-1) Experimental 2 / Pe (10-6 cm s-1) Experimental 3: source data; for Papp at 2.5 h: pig, PAMPA-BBB, pH 7.4, 5% DMSO, 2 h 30 min at 25 °C, mean ± SD, read-out: Pe, in vitro permeability
Text: The PAMPA methodology is a high-throughput technique to predict passive permeability through biological membranes that employs a brain lipid porcine as membrane. […]
From this equation and following the pattern established in the literature for BBB permeation prediction2 we could classify compounds as CNS + when they present a permeability > 4.50 x 10-6 cm s-1. Source data are provided as a Source Data file. […]
Parallel artificial membrane permeability assays. Prediction of the brain penetration was evaluated using a parallel artificial membrane permeability assay (PAMPA).4 Ten commercial drugs, phosphate buffer saline solution at pH 7.4 (PBS). DMSO and dodecane were purchased from Sigma, Across organics, Aldrich and Fluka. The porcine […]
plate was a 96-well filtrate plate (Multiscreen® IP Sterile Plate PDVF membrane, pore […]
MAIPS4510) and the acceptor plate was an indented 96-well plate (Multiscreen®, catalog no. MAMCS9610) both from Millipore. Filter PDVF […]
membrane units (diameter 30 mm, pore size 0.45 µm) from Symta were used to filter the samples. A 96-well plate UV reader (Thermoscientific, Multiskan spectrum) was used for the UV measurements.

NCS-1/Ric8a interaction = system: NCS-1/Ric8a interaction; parameters: method as in PMID 28119500, PMID 29966094; conditions: cited from earlier work

For `O=C(N/N=C/c1ccc([N+](=O)[O-])c(O)c1)c1cccs1` [3e], the “RPA, Blank DCL” value (dNCS-1; as fraction of total area) was 0.3277, the “RPA, Templated DCL” value (dNCS-1; as fraction of total area, with dNCS-1) was 0.4342 and the “RPA (%) with protein (templated DCL)” value (dNCS-1; relative peak area in presence of dNCS-1) was 43.4% and 43.4187%. The “RPA (%) without protein (blank DCL)” value (dNCS-1; relative peak area, sum of all peak areas set to 100%) was 32.8% and 32.7742%, the RPA (%), Blank DCL (dNCS-1; sheet Supplementary Figure 10) was 32.8% and the RPA (%), Templated DCL (dNCS-1; sheet Supplementary Figure 10, with dNCS-1) was 43.4%.

For `CC(=O)Oc1ccccc1C(=O)O` [Aspirin], the “Experimental log S” value [1] is listed as -1.72.

In the case of `CCOC(=O)c1ccc(N)cc1` [Benzocaine], the “Experimental log S” value [1] is given as -2.32.

With `Cn1c(=O)c2c(ncn2C)n(C)c1=O` [Caffeine] the “Pe (10-6 cm s-1) Experimental 1” value [2] was 1.3 10-6 cm s-1, the “Pe (10-6 cm s-1) Experimental 2” value [2] was 0.87 10-6 cm s-1 and the “Pe (10-6 cm s-1) Experimental 3” value [2] was 1.70 10-6 cm s-1.

For `CCOP(=S)(OCC)Oc1nc(Cl)c(Cl)cc1Cl` [Chlorpyriphos], the “Experimental log S” value [1] is given as -5.49.

For `CNCCCN1c2ccccc2CCc2ccccc21` [Desipramine], the “Pe (10-6 cm s-1) Experimental 2” value [2] was 16.20 10-6 cm s-1 and the “Pe (10-6 cm s-1) Experimental 3” value [2] was 13.70 10-6 cm s-1.

For `CN(C)C(=O)Nc1ccc(Cl)c(Cl)c1` [Diuron], the “Experimental log S” value [1] is given as -3.80.

In the case of `CCn1cc(C(=O)O)c(=O)c2cc(F)c(N3CCNCC3)nc21` [Enoxacin], the “Pe (10-6 cm s-1) Experimental 1” value [2] is reported as 1.4 10-6 cm s-1, the “Pe (10-6 cm s-1) Experimental 2” value [2] is reported as 1.30 10-6 cm s-1 and the “Pe (10-6 cm s-1) Experimental 3” value [2] is reported as 1.47 10-6 cm s-1.

For `O=C(CN1CCCCC1)NN1c2ccccc2Sc2ccccc21` [FD44], the “reported inhibition of the NCS-1/Ric8a interaction” value (NCS-1/Ric8a interaction) is given as “strong”.

For `O=C(CC(c1ccccc1)c1ccccc1)Nc1nc2ccccc2s1` [IGS-1.76], the “reported inhibition of the NCS-1/Ric8a interaction” value (NCS-1/Ric8a interaction) is given as “strong”.

For `Cl[C@H]1[C@H](Cl)[C@@H](Cl)[C@@H](Cl)[C@H](Cl)[C@H]1Cl` [Lindane], the “Experimental log S” value [1] is listed as -4.64.

For `CCOC(=O)CC(SP(=S)(OC)OC)C(=O)OCC` (stereo not shown) [Malathion], the “Experimental log S” value [1] is given as -3.37.

In the case of `O=C1CN(/N=C/c2ccc([N+](=O)[O-])o2)C(=O)N1` [Nitrofurantoin], the “Experimental log S” value [1] is listed as -3.47.

In the case of `CCOP(=S)(OCC)Oc1ccc([N+](=O)[O-])cc1` [Parathion], the “Experimental log S” value [1] is given as -4.66.

For `O=C1OC(c2ccc(O)cc2)(c2ccc(O)cc2)c2ccccc21` [Phenolpthalein], the “Experimental log S” value [1] is listed as -2.60.

In the case of `O=C1NC(=O)C(c2ccccc2)(c2ccccc2)N1` [Phenytoin], the “Experimental log S” value [1] is listed as -3.99.

With `CN1C(C(=O)Nc2ccccn2)=C(O)c2ccccc2S1(=O)=O` [Piroxicam] the Papp at 2.5 h [2] was 1.3 ± 0.2 ×10⁻⁶ cm/s, the “Pe (10-6 cm s-1) Experimental 1” value [2] was 1.3 10-6 cm s-1 and the “Pe (10-6 cm s-1) Experimental 2” value [2] was 1.16 10-6 cm s-1. The “Pe (10-6 cm s-1) Experimental 3” value [2] was 1.44 10-6 cm s-1.

For `CN(C)CCCN1c2ccccc2Sc2ccccc21` [Promazine], the Papp at 2.5 h [2] was 9.5 ± 0.6 ×10⁻⁶ cm/s, the “Pe (10-6 cm s-1) Experimental 1” value [2] was 9.5 10-6 cm s-1 and the “Pe (10-6 cm s-1) Experimental 2” value [2] was 9.04 10-6 cm s-1. The “Pe (10-6 cm s-1) Experimental 3” value [2] was 9.94 10-6 cm s-1.

Source: publication PMC6595003, “Insights into real-time chemical processes in a calcium sensor protein-directed dynamic library” (Nature Communications, 2019)
